Laboratory results reported in US20110009628A1, “Compounds and Compositions for Modulating Lipid Levels and Methods of Preparing Same” (priority 2009, published 2011).

Tested on: LDLR mRNA expression in HepG2 cells
Assay: LDLR mRNA expression in HepG2 cells, quantitative real-time RT-PCR (Example 7)
Type: cell-based, human
Details: dose less than or equal to 10 μM, 24 hours
Experimental: In yet another experiment, HepG2 cells were treated with various compounds for 24 hours at the indicated doses. Total RNA was isolated and 2 μg was used to generate cDNA in a reaction containing random primers and M-MLV at 37° C. for 1 hour in a volume of 25 μL. Real-time PCR was performed on the cDNA using MCEP REALPLEX 2 SYSTEM (Eppendorf) and Universal MasterMix (Applied Biosystems). Human LDLR and GAPDH Pre-Developed TaqMan Assay Reagents (Applied Biosystems) were used to assess the levels of mRNA expressions in HepG2. The levels of LDLR mRNA were normalized to that of GAPDH. Each RNA samples was assayed in triplicate. The abundance of LDLR mRNA in untreated cells was defined as 1, and the amounts of LDLR mRNA from compound-treated cells were plotted relative to that value in FIG. 2B. The data shown are mean±s.d.
Activities of some compounds of Formulas I, II and EE on LDLR mRNA expression were determined. HepG2 cells were treated with new compounds individually at a dose less than or equal to 10 μM for 24 hours. […] In these experiments, berberine chloride was included for comparison.

Structure (SMILES)	Activity on LDLR mRNA expression (Fold of control)
COc1ccc2c(c1OS(=O)(=O)c1ccccc1F)CN1CCc3cc4c(cc3C1C2)OCO4 (centres unmarked) [Compound 51, 10-methoxy-5,6,7,8,13,13a-hexahydro-2H-1,3-dioxolano[4,5-g]isoquinolino[3,2-a]isoquinolin-9-yl 2-fluorobenzenesulfonate]	3.79 ± 0.33 Fold of control
COc1ccc2c(c1Oc1ncc([N+](=O)[O-])cc1C)CN1CCc3cc4c(cc3C1C2)OCO4 (centres unmarked) [Compound 94, 10-methoxy-9-(3-methyl-5-nitro(2-pyridyl)oxy)-5,6,7,8,13,13a-hexahydro-2H-1,3-dioxolano[4,5-g]isoquinolino[3,2-a]isoquinoline]	1.22 ± 0.18 Fold of control
COc1ccc2c(c1OS(=O)(=O)c1ccc(C(F)(F)F)cc1)CN1CCc3cc4c(cc3C1C2)OCO4 (centres unmarked) [Compound 85, 9-(4-trifluoromethyl-benzenesulfonyloxy)-10-methoxy-5,8,13,13a-tetrahydro-6H-[1,3]dioxolo[4,5-g]isoquino[3,2-a]isoquinoline]	1.42 ± 0.30 Fold of control
COc1ccc2c(c1OS(=O)(=O)C(F)(F)F)CN1CCc3cc4c(cc3C1C2)OCO4 (centres unmarked) [Compound 90, 10-methoxy-5,6,7,8,13,13a-hexahydro-2H-1,3-dioxolano[4,5-g] isoquinolino[3,2-a] isoquinolin-9-yl (trifluoromethyl)sulfonate]	1.21 ± 0.07 Fold of control
COc1ccc2c(c1OS(=O)(=O)c1cccc(F)c1)CN1CCc3cc4c(cc3C1C2)OCO4 (centres unmarked) [Compound 52, 10-methoxy-5,6,7,8,13,13a-hexahydro-2H-1,3-dioxolano[4,5-g]isoquinolino[3,2-a]isoquinolin-9-yl 3-fluorobenzenesulfonate]	3.63 ± 0.17 Fold of control
COc1ccc(S(=O)(=O)Oc2c(OC)ccc3c2CN2CCc4cc5c(cc4C2C3)OCO5)cc1OC (centres unmarked) [Compound 86, 9-(3,4-dimethoxy-benzenesulfonyloxy)-10-methoxy-5,8,13,13a-tetrahydro-6H-[1,3]dioxolo[4,5-g]isoquino[3,2-a]isoquinoline]	2.48 ± 0.62 Fold of control
COc1ccc2c(c1OC(=O)Nc1ccccc1)CN1CCc3cc4c(cc3C1C2)OCO4 (centres unmarked) [Compound 61, (10-methoxy(5,6,7,8,13,13a-hexahydro-2H-1,3-dioxolano[4,5-g]isoquinolino[3,2-a]isoquinolin-9-yloxy))-N-benzamide]	1.33 ± 0.53 Fold of control
COc1ccc2c(c1OS(=O)(=O)c1ccc(C)cc1)CN1CCc3cc4c(cc3C1C2)OCO4 (centres unmarked) [Compound 57, 10-methoxy-5,6,7,8,13,13a-hexahydro-2H-1,3-dioxolano[4,5-g]isoquinolino[3,2-a]isoquinolin-9-yl 4-methylbenzenesulfonate]	2.62 ± 0.17 Fold of control
COc1ccc2c(c1OS(=O)(=O)c1cccc(C)c1)CN1CCc3cc4c(cc3C1C2)OCO4 (centres unmarked) [Compound 60, 10-methoxy-5,6,7,8,13,13a-hexahydro-2H-1,3-dioxolano[4,5-g]isoquinolino[3,2-a]isoquinolin-9-yl 3-methylbenzenesulfonate]	3.46 ± 0.75 Fold of control
COc1ccc2c(c1Oc1ncc(N)cc1C)CN1CCc3cc4c(cc3C1C2)OCO4 (centres unmarked) [Compound 100, 6-(10-methoxy(5,6,7,8,13,13a-hexahydro-2H-1,3-dioxolano[4,5-g]isoquinolino[3,2-a]isoquinolin-9-yloxy))-5-methyl-3-pyridylamine]	1.44 ± 0.59 Fold of control
COc1ccc2c(c1OS(=O)(=O)c1sc(NC(C)=O)nc1C)CN1CCc3cc4c(cc3C1C2)OCO4 (centres unmarked) [Compound 93, 10-methoxy-5,6,7,8,13,13a-hexahydro-2H-1,3-dioxolano [4,5-g]isoquinolino[3,2-a]isoquinolin-9-yl 2-(acetylamino)-4-methyl-1,3-thiazole-5-sulfonate]	1.42 ± 0.16 Fold of control
COc1ccc2c(c1OS(=O)(=O)c1ccc(F)cc1)CN1CCc3cc4c(cc3C1C2)OCO4 (centres unmarked) [Compound 58, 10-methoxy-5,6,7,8,13,13a-hexahydro-2H-1,3-dioxolano[4,5-g]isoquinolino[3,2-a]isoquinolin-9-yl 4-fluorobenzenesulfonate]	3.90 ± 0.01 Fold of control
COc1ccc2c(c1OS(=O)(=O)c1ccc(F)cc1F)CN1CCc3cc4c(cc3C1C2)OCO4 (centres unmarked) [Compound 59, 10-methoxy-5,6,7,8,13,13a-hexahydro-2H-1,3-dioxolano[4,5-g]isoquinolino[3,2-a]isoquinolin-9-yl 2,4-difluorobenzenesulfonate]	3.73 ± 0.10 Fold of control
COc1ccc2c(c1Oc1ccc([N+](=O)[O-])cn1)CN1CCc3cc4c(cc3C1C2)OCO4 (centres unmarked) [Compound 96, 10-methoxy-9-(5-nitro(2-pyridyl)oxy)-5,6,7,8,13,13a-hexahydro-2H-1,3-dioxolano [4,5-g]isoquinolino[3,2-a]isoquinoline]	1.33 ± 0.05 Fold of control
COc1ccc2c(c1OS(=O)(=O)c1cccnc1)CN1CCc3cc4c(cc3C1C2)OCO4 (centres unmarked) [Compound 101, 10-methoxy-5,6,7,8,13,13a-hexahydro-2H-1,3-dioxolano [4,5-g]isoquinolino[3,2-a]isoquinolin-9-yl pyridine-3-sulfonate]	1.97 ± 0.00 Fold of control
COc1cc2c(cc1OC)C1Cc3ccc(OC)c(OCc4ccccc4)c3CN1CC2 (centres unmarked) [Compound 64, 2,3,10-trimethoxy-9-(phenylmethoxy)-5,6,7,8,13,13a-hexahydroisoquinolino[3,2-a]isoquinoline]	2.82 ± 0.45 Fold of control
COc1ccc2c(c1OS(=O)(=O)c1ccc([N+](=O)[O-])cc1)CN1CCc3cc4c(cc3C1C2)OCO4 (centres unmarked) [Compound 65, 10-methoxy-5,6,7,8,13,13a-hexahydro-2H-1,3-dioxolano[4,5-g]isoquinolino[3,2-a]isoquinolin-9-yl 4-nitrobenzenesulfonate]	2.58 ± 0.46 Fold of control
COc1ccc2c(c1OS(=O)(=O)c1cccc3c(N(C)C)cccc13)CN1CCc3cc4c(cc3C1C2)OCO4 (centres unmarked) [Compound 89, 10-methoxy-5,6,7,8,13,13a-hexahydro-2H-1,3-dioxolano [4,5-g]isoquinolino[3,2-a] isoquinolin-9-yl 5-(dimethylamino)naphthalene-sulfonate]	1.92 ± 0.40 Fold of control
COc1ccc2c(c1OS(=O)(=O)c1cccc3cccnc13)CN1CCc3cc4c(cc3C1C2)OCO4 (centres unmarked) [Compound 66, 10-methoxy-5,6,7,8,13,13a-hexahydro-2H-1,3-dioxolano[4,5-g]isoquinolino[3,2-a]isoquinolin-9-yl quinoline-8-sulfonate]	2.54 ± 0.06 Fold of control
COc1ccc2c(c1OS(=O)(=O)c1cccc([N+](=O)[O-])c1)CN1CCc3cc4c(cc3C1C2)OCO4 (centres unmarked) [Compound 63, 10-methoxy-5,6,7,8,13,13a-hexahydro-2H-1,3-dioxolano[4,5-g]isoquinolino[3,2-a]isoquinolin-9-yl 3-nitrobenzenesulfonate]	2.94 ± 0.13 Fold of control
COc1ccc2c(c1OS(=O)(=O)c1ccc(-c3ccccc3)cc1)CN1CCc3cc4c(cc3C1C2)OCO4 (centres unmarked) [Compound 37, 10-methoxy-5,6,7,8,13,13a-hexahydro-2H-1,3-dioxolano[4,5-g]isoquinolino[3,2-a]isoquinolin-9-yl 4-phenylbenzenesulfonate]	2.47 ± 0.07 Fold of control
COc1ccc2c(c1)CN1CCc3cc4c(cc3C1C2)OCO4 (centres unmarked) [Compound 92, 10-methoxy-5,6,7,8,13,13a-hexahydro-2H-1,3-dioxolano[4,5-g]isoquinolino[3,2-a]isoquinoline]	1.52 ± 0.07 Fold of control
CCOC(=O)Oc1c(OC)ccc2c1CN1CCc3cc4c(cc3C1C2)OCO4 (centres unmarked) [Compound 48, 10-methoxy-5,6,7,8,13,13a-hexahydro-2H-1,3-dioxolano[4,5-g]isoquinolino[3,2-a]isoquinolin-9-yl ethoxyformate]	1.45 ± 0.15 Fold of control
COc1ccc2c(c1OCCN1CCOCC1)CN1CCc3cc4c(cc3C1C2)OCO4 (centres unmarked) [Compound 88, 9-O-2-(1′-morpholine-ethyl)-10-methoxy-5,8,13,13a-tetrahydro-6H-[1,3]dioxolo[4,5-g]isoquino[3,2-a]isoquinoline]	1.93 ± 0.24 Fold of control
COc1cc2c(cc1OCc1ccccc1)CCN1Cc3c(ccc(OC)c3OS(=O)(=O)c3ccccc3)CC21 (centres unmarked) [Compound 95, 2,10-dimethoxy-3-(phenylmethoxy)-5,6,7,8,13,13a-hexahydroisoquinolino[2,1-b]isoquinolin-9-yl benzenesulfonate]	1.43 ± 0.04 Fold of control
COc1ccc2c(c1OS(=O)(=O)c1ccc(F)c(F)c1)CN1CCc3cc4c(cc3C1C2)OCO4 (centres unmarked) [Compound 53, 10-methoxy-5,6,7,8,13,13a-hexahydro-2H-1,3-dioxolano[4,5-g]isoquinolino[3,2-a]isoquinolin-9-yl 3,4-difluorobenzenesulfonate]	3.96 ± 0.40 Fold of control
